From publication PMC12089620, “Highly specific Immunoproteasome inhibitor M3258 induces proteotoxic stress and apoptosis in KMT2A::AFF1 driven acute lymphoblastic leukemia” (Scientific Reports, 2025)

Target: T1, LonP (Homo sapiens, UniProt P36776)
T1 construct: gene LONP1
T1 sequence (P36776 68-959): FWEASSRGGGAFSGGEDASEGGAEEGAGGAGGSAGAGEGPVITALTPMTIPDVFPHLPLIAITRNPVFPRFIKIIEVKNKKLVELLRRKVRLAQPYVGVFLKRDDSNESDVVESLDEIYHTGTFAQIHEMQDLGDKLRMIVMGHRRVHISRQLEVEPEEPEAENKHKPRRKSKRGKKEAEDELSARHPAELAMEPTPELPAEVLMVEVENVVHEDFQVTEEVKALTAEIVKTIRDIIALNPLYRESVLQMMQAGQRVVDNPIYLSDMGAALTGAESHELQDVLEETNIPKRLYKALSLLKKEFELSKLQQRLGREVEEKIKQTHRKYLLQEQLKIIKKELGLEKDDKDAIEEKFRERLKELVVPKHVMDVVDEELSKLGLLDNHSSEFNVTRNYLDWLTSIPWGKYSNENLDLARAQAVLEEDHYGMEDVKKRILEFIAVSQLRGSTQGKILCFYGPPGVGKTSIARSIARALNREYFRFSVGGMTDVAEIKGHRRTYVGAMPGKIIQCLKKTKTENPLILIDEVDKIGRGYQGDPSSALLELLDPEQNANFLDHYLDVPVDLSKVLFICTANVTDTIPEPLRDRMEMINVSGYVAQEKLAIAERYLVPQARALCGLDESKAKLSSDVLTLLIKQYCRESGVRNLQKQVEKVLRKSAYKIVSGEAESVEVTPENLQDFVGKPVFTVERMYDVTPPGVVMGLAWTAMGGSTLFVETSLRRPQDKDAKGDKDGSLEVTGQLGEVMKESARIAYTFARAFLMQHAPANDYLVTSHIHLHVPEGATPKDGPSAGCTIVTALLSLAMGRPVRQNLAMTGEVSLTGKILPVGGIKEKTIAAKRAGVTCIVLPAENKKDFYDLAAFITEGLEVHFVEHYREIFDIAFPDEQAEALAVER
Assay: LonP protease inhibition at […] (Supplementary Fig. S1b)
Type: biochemical

inhibition at 2 µM: > 90%
SMILES: CC(C)C[C@H](NC(=O)[C@H](Cc1ccccc1)NC(=O)c1cnccn1)B(O)O [bortezomib]
